Data: patent US20260364068A1, “ANTIVIRAL USE OF HETEROARYL DERIVATIVE COMPOUND” (UIF (University Industry Foundation), Yonsei University, priority 2022, published 2026)
Where two headings read alike, the source gives them in different places.

Assays:
Format in all cases: cell-based
human ANO6 (variant 5) = molecular target: T1, human ANO6 (variant 5) (Homo sapiens, UniProt Q4KMQ2); test: Lact C2 assay (phosphatidylserine externalization scramblase function); details: FRT cells expressing human ANO6, ionomycin 10 μM, read-out: % Inhibition (phosphatidylserine externalization inhibitory activity); for inhibition at 0.05 µM: 50 nM
T1 construct: expressed in transfected cells; host or cells: Fisher rat thyroid (FRT) cells
T1 sequence (Q4KMQ2 1-931 isoform Q4KMQ2-2): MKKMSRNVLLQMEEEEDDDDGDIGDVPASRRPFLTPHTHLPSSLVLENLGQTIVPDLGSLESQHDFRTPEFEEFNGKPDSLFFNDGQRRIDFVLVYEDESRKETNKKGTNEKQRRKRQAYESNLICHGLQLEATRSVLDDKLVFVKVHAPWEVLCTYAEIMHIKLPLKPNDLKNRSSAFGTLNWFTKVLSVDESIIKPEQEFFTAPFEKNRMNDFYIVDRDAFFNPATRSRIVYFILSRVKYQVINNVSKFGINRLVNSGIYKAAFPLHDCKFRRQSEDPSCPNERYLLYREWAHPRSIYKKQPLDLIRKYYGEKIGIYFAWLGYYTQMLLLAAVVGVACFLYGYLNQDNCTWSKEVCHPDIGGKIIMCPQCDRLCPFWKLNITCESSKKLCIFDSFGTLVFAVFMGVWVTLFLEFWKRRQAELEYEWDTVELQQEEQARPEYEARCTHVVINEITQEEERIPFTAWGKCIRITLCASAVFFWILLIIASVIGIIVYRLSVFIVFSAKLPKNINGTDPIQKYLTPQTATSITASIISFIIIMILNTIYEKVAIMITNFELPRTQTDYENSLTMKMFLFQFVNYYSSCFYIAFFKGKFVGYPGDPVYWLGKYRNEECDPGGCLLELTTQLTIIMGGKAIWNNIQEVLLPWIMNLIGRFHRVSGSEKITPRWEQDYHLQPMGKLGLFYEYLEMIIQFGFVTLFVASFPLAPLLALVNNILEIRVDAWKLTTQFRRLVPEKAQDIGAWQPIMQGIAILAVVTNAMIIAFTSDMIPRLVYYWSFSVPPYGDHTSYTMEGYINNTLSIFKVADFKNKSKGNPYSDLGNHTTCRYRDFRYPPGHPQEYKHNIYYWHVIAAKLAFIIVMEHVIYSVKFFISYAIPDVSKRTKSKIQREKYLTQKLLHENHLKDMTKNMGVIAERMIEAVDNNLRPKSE
Protocol: Experimental Example 2: Lact C2 Assay (Measuring Phosphatidylserine Externalization Scramblase Function)
Ionomycin (Alomonelab, cat. #I-700), DAPI (Sigma-Aldrich, cat. #D8417), paraformaldehyde (Biosesang, cat. #P2031), Lionheart FX automated fluorescence microscope (BioTek), Gen5™ software program (BioTek), and Image J analysis software program.
Fisher rat thyroid (FRT) cells expressing human ANO6 (variant 5; GenBank accession no. NP_001191732.1) were cultured at 37 °C under 5% CO2 conditions in DMEM/Ham's F-12 (1:1) medium supplemented with 10% Fetal Bovine Serum, 2 mM […], 100 units/mL penicillin, and 100 μg/mL streptomycin.
Fischer Rat Thyroid (FRT) cells (2×10^4 cells/well) expressing human ANO6 (variant 5) were cultured in a 96-well microplate for 24 hours. After the incubation, the cells were treated with compounds dissolved in DMSO to 1% v/v in each well at each concentration (50 nM, 100 nM, and 1 μM) and reacted for 10 minutes. Thereafter, each well was treated with ionomycin to a final concentration of 10 μM, allowed to react for 10 minutes, and then washed with 200 μL PBS. After washing, each well was treated with 50 μL of Lactadherin-C2 (Lact-C2)-GFP mixed in DMEM medium to a final concentration of 500 nM to stain phosphatidylserine, and cultured at 37 °C for 10 minutes. After completion of the reaction, the cells were washed with 200 μL PBS, and fixed with 4% paraformaldehyde for 5 minutes at room temperature. For morphological analysis, DAPI solution was added, and the cells were incubated for 15 minutes, followed by washing with PBS. The fluorescence intensity of Lact-C2-GFP bound to phosphatidylserine on the cell surface was measured using an automated fluorescence microscope. For quantitative analysis of the fluorescence intensity of Lact-C2-GFP, BioTek Gen5™ software and Image J analysis software programs were used.
Phosphatidylserine externalization inhibitory activity (%) by the compound was calculated through the following analysis method. Specifically, the background fluorescence value was subtracted from the measured Lact-C2-GFP fluorescence value, and the fluorescence value of the ionomycin non-treatment group and the ionomycin-treatment group in the same row where each test group was located in a 96-well microplate were calculated. In order to calculate the inhibitory activity (%) by the compound, the relative inhibitory activity was calculated by setting the compound and ionomycin non-treatment group to 100% inhibitory activity and the ionomycin alone treatment group to 0% inhibitory activity. To derive the results, the test was repeated three times, and the average values of the results were classified according to the range below and shown in Table 4 below (A: >60% inhibition, B: 30 to 60% inhibition, N/A: no test).

[1] = Cell viability measurement (MTS), Calu-3 cells; details: human
Method in brief: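 Calu-3 cells at about 20% confluency treated with compounds at 1, 3 and 10 μM (0.5% v/v DMSO) for 48 h at 37 °C. MTS added for 1 h; A490 minus A690 background, normalized to DMSO control as 100%; mean of 2–6 repeats, binned into viability ranges.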

[2] = test system: Severe Acute Respiratory Syndrome Coronavirus Type 2; test: microbe, parasite or virus in culture; details: Vero, 10 uM, read-out: Virus replication inhibition efficacy
[3] = Cell viability measurement (MTS), Vero cells; details: monkey
Protocol: Experimental Example 3: Cell Viability Measurement
Vero cell line (VERO01WCB-1201, Ministry of Food and Drug Safety, Republic of Korea), Calu-3 cell line (KCLB #30055, Korea Cell Line Bank (KCLB), Republic of Korea), CellTiter 96® AQueous One Solution Cell Proliferation Assay kit (Promega, cat. #G3582), and Infinite M200 microplate reader (Tecan).
Vero cells were cultured at 37 °C and 5% CO2 in DMEM medium supplemented with 10% fetal bovine serum, 100 units/mL penicillin, and 100 μg/mL streptomycin.
Vero cells or Calu-3 cells were seeded in 96-well microplates and cultured for 24 hours until the cell confluency reached 20%. After the incubation, compounds were treated in DMSO at concentrations (1, 3, and 10 μM) to reach 0.5% v/v in each well, and reacted at 37 °C for 48 hours. Into each well of the incubated 96-well microplate, 3-(4,5-dimethylthiazol-2-yl)-5-(3-carboxymethoxyphenyl)-2-(4-sulfophenyl)-2H-tetrazolium salt (MTS) assay solution [CellTiter 96® AQueous One Solution Cell Proliferation Assay kit (Promega)] mixed with DMEM medium at a ratio of 1:5, was dispensed at 100 μL/well and incubated at 37 °C for 1 hour. The 490 nm and 690 nm absorbance was then measured using an Infinite M200 instrument.
The cell viability (also, referred to as cell survival rate) (%) by compound treatment was calculated using the following analysis method. The 690 nm background absorbance value was subtracted from the measured 490 nm absorbance value. Then, to obtain the cell viability of each test group, the viability of the DMSO-treated group that was not treated with the compound was set to 100% and then the relative viability 1 of each compound was calculated. Two to six repeated tests were performed to obtain the results, and the mean values of the results were categorized into the following ranges and shown in Table 5 below (A: 80% survived, B: 50-80% survived, N/A: not tested)

[4] = test system: Severe Acute Respiratory Syndrome Coronavirus Type 2; test: microbe, parasite or virus in culture; details: Calu-3, 10 uM, read-out: Virus replication inhibition efficacy
[5] = virus strain NCCP-43344, 48 hours
[6] = virus strain NCCP-43388, 48 hours

## FC(F)(F)c1cc2[nH]c(-c3cccc(Nc4cnc(-c5ccccn5)cn4)c3)nc2cn1 [Example 328, 5-(pyridin-2-yl)-N-(3-(6-(trifluoromethyl)-1H-imidazo[4,5-c]pyridin-2-yl)phenyl)pyrazin-2-amine]
Human ANO6 (variant 5)
  inhibition at 1 µM: > 60%

## FC(F)Oc1cc2[nH]c(-c3cccc(Nc4cnc(-c5ccccn5)cn4)c3)nc2cn1 [Example 336, N-(3-(6-(difluoromethoxy)-1H-imidazo[4,5-c]pyridin-2-yl)phenyl)-5-(pyridin-2-yl)pyrazin-2-amine]
[1]
  viability at 48 h, 10 µM: > 80%
Human ANO6 (variant 5)
  inhibition at 0.05 µM: > 60%
  inhibition at 1 µM: > 60%

## FC(F)(F)c1ccc2nc(-c3cccc(Nc4ccc(-c5ccncn5)cc4)c3)[nH]c2c1 [Example 24, N-(4-(pyrimidin-4-yl)phenyl)-3-(6-(trifluoromethyl)-1H-benzo[d]imidazol-2-yl)aniline]
[1]
  viability at 48 h, 1 µM: > 80%
[2]; [5]
  inhibition at 10 µM: > 60%
[3]
  viability at 48 h, 1 µM: > 80%
  viability at 48 h, 3 µM: > 80%
[4]; [5]
  inhibition at 10 µM: > 60%

## FC(F)Oc1ccc2nc(-c3cccc(Nc4ccc(-c5cccnn5)cc4)c3)[nH]c2c1 [Example 335, 3-(6-(difluoromethoxy)-1H-benzo[d]imidazol-2-yl)-N-(4-(pyridazin-3-yl)phenyl)aniline]
Human ANO6 (variant 5)
  inhibition at 0.05 µM: > 60%
  inhibition at 1 µM: > 60%

## c1cc(Nc2ccc(-c3cccnn3)cc2)cc(-c2nc3ccccc3[nH]2)c1 [Example 21, 3-(1H-benzo[d]imidazol-2-yl)-N-(4-(pyridazin-3-yl)phenyl)aniline]
[1]
  viability at 48 h, 1 µM: > 80%
  viability at 48 h, 3 µM: 50 to 80%
  viability at 48 h, 10 µM: 50 to 80%
[2]; [6]
  inhibition at 10 µM: > 60%
[3]
  viability at 48 h, 3 µM: > 80%
  viability at 48 h, 10 µM: 50 to 80%
[4]; [6]
  inhibition at 10 µM: > 60%

## FC(F)(F)c1ccc2nc(-c3cccc(Nc4ccc(-c5cccnn5)cc4)c3)[nH]c2c1 [Example 23, N-(4-(pyridazin-3-yl)phenyl)-3-(6-(trifluoromethyl)-1H-benzo[d]imidazol-2-yl)aniline]
[1]
  viability at 48 h, 1 µM: > 80%
  viability at 48 h, 3 µM: 50 to 80%
[2]; [5]
  inhibition at 10 µM: > 60%
[3]
  viability at 48 h, 1 µM: > 80%
  viability at 48 h, 3 µM: > 80%
[4]; [5]
  inhibition at 10 µM: > 60%

## Fc1ccc2nc(-c3cccc(Nc4cnc(-c5ccccn5)cn4)c3)[nH]c2c1 [Example 323, N-(3-(6-fluoro-1H-benzo[d]imidazol-2-yl)phenyl)-5-(pyridin-2-yl)pyrazin-2-amine]
[1]
  viability at 48 h, 10 µM: > 80%
Human ANO6 (variant 5)
  inhibition at 0.05 µM: 30 to 60%
  inhibition at 1 µM: > 60%

## Fc1cc2[nH]c(-c3cccc(Nc4cnc(-c5ccccn5)cn4)c3)nc2cn1 [Example 330, N-(3-(6-fluoro-1H-imidazo[4,5-c]pyridin-2-yl)phenyl)-5-(pyridin-2-yl)pyrazin-2-amine]
[1]
  viability at 48 h, 10 µM: > 80%
Human ANO6 (variant 5)
  inhibition at 1 µM: > 60%

## Fc1cc2nc(-c3cccc(Nc4ncc(-c5cscn5)cn4)c3)[nH]c2cc1F [Example 332, N-(3-(5,6-difluoro-1H-benzo[d]imidazol-2-yl)phenyl)-5-(thiazol-4-yl)pyrimidin-2-amine]
[1]
  viability at 48 h, 10 µM: > 80%
Human ANO6 (variant 5)
  inhibition at 0.05 µM: > 60%
  inhibition at 1 µM: > 60%

## FC(F)Oc1cc2[nH]c(-c3cccc(Nc4ncc(-c5ccccn5)cn4)c3)nc2cn1 [Example 329, N-(3-(6-(difluoromethoxy)-1H-imidazo[4,5-c]pyridin-2-yl)phenyl)-5-(pyridin-2-yl)pyrimidin-2-amine]
[1]
  viability at 48 h, 10 µM: 50 to 80%
Human ANO6 (variant 5)
  inhibition at 0.05 µM: > 60%
  inhibition at 1 µM: > 60%

## c1ccc(-c2ccc(Nc3cccc(-c4nc5ccccc5[nH]4)c3)cc2)nc1 [Example 20, 3-(1H-benzo[d]imidazol-2-yl)-N-(4-(pyridin-2-yl)phenyl)aniline]
[1]
  viability at 48 h, 1 µM: > 80%
  viability at 48 h, 3 µM: 50 to 80%
[2]; [6]
  inhibition at 10 µM: > 60%
[3]
  viability at 48 h, 1 µM: > 80%
  viability at 48 h, 10 µM: 50 to 80%
[4]; [6]
  inhibition at 10 µM: > 60%

## COc1cc2nc(-c3cccc(Nc4ncc(-c5cccnn5)cn4)c3)[nH]c2cc1F [Example 121, N-[3-(6-fluoro-5-methoxy-1H-benzo[d]imidazol-2-yl)phenyl]-5-pyridazin-3-yl-pyrimidin-2-amine]
Human ANO6 (variant 5)
  inhibition at 1 µM: 30 to 60%

## FC(F)(F)Oc1ccc2nc(-c3cccc(Nc4cnc(-c5ccccn5)cn4)c3)[nH]c2c1 [Example 325, 5-(pyridin-2-yl)-N-(3-(6-(trifluoromethoxy)-1H-benzo[d]imidazol-2-yl)phenyl)pyrazin-2-amine]
Human ANO6 (variant 5)
  inhibition at 1 µM: > 60%

## FC(F)(F)c1ccc2nc(-c3cccc(NC4CCC(c5cccnn5)CC4)c3)[nH]c2c1 (mixture of isomers) [Example 124, N-(4-(pyridazin-3-yl)cyclohexyl)-3-(6-(trifluoromethyl)-1H-benzo[d]imidazol-2-yl)aniline]
Human ANO6 (variant 5)
  inhibition at 1 µM: 30 to 60%
